Experimental findings from patent US9150505B2, “Prophylactic or therapeutic agent for diabetes or obesity” (AJINOMOTO CO., INC., priority 2010, dated 2015) are described below.

In general, EC50 refers to the concentration needed to bring the measured effect to its halfway point. A higher EC50 goes with a less potent agent.

Counter-ions that a name gives are not always drawn.

The experiment concerns the target T1, human CaSR (Homo sapiens, UniProt P41180).
T1 construct: expressed in transfected cells; host or cells: 293E cells (EBNA1-expressing HEK293, ATCC No. CRL-10852), transient transfection of hCaSR/pcDNA3.1
T1 sequence (P41180 20-1078): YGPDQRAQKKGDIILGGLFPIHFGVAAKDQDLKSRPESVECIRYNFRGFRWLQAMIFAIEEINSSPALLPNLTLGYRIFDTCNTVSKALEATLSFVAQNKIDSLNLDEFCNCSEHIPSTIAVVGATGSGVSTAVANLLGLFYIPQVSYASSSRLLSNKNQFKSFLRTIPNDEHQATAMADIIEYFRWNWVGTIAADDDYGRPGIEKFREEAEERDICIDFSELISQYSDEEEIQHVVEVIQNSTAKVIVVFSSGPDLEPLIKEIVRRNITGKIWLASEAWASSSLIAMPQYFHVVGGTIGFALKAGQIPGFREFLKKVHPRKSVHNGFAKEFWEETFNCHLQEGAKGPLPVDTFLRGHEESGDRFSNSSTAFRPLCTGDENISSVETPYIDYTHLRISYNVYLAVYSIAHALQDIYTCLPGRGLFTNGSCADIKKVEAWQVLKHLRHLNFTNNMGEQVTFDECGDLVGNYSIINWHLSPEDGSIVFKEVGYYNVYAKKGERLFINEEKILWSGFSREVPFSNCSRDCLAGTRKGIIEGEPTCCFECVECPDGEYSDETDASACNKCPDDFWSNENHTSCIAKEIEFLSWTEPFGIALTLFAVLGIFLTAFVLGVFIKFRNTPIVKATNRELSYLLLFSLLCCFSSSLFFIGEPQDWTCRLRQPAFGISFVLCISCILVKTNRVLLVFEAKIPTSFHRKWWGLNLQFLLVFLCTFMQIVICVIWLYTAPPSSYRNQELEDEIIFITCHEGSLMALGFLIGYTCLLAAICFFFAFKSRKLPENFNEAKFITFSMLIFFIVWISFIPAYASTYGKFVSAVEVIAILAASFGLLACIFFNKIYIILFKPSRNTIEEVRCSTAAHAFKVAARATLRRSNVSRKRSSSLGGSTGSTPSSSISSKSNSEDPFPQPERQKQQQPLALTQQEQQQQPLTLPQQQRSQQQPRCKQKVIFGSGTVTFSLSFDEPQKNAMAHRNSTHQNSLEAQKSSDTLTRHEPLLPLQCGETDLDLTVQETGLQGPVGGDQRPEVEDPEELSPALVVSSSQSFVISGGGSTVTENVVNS
Kind of experiment: Assessment of CaSR agonistic activity (Ca2+ fluorescence, FLIPR, hCaSR-transfected 293E cells). Format: cell-based. The note with it: human CaSR-expressing 293E cells, 1.5 mM CaCl2 assay buffer, 3-minute change in fluorescence intensity. The protocol:
CaSR gene was prepared according to the method described in Example 1 of WO07/55393. The resulting recombinant plasmid was used to generate human CaSR-expressing plasmid hCaSR/pcDNA3.1.
293E cells (EBNA1-expressing IIEK293 cells, ATCC No. CRL-10852) were cultured in DMEM ([…] Glucose-containing Dulbecco's modified Eagle medium, Nacalai Tesque) containing 10% bovine fetal serum in the presence of 250 μg/ml of G418. The cells were seeded on a 10 cm-diameter petri dish at 1.8×10^6 cells/15 ml, and left to stand in a CO2 incubator (5% CO2, 37° C.) for 24 hours. Thereafter, human CaSR expression plasmid hCaSR/pcDNA3.1 was transfected with transfection reagent Mirus Trans IT 293 (Takara Bio). Following static culture in a CO2 incubator for 24 hours, the cells were harvested with 10% bovine fetal serum-containing DMEM and seeded on a poly-D-lysine coat 384 well plate (Falcon) at 15,000 cells/well. Following static culture in a CO2 incubator for 24 hours, the medium was removed and the resultant was added with 50 μl/well of Ca^2+ fluorescent indicator Calcium 4 Assay Kit (Molecular Devices) dissolved in an assay buffer (146 mM NaCl, 5 mM KCl, 1 mM MgSO4, 1 mg/ml Glucose, 20 mM HEPES (PH 7.2), 1.5 mM CaCl2), and left to stand at 37° C. for an hour and then at room temperature for 30 minutes to allow intake of the indicator. The above-mentioned 384-well plate was transferred to FLIPR (Molecular Devices) and added with 12.5 μl/well of a compound dissolved in a 0.1% BSA-containing assay buffer to measure 3-minute change in the fluorescence intensity.
The difference between maximum and minimum fluorescence intensities before and after compound addition (RFU (Max−Min)) was determined by FLIPR automatic calculation. An activity rate was calculated where RFU (Max−Min) upon addition of a compound at a maximum concentration was defined 100% and RFU (Max−Min) upon addition of DMSO as a substitute for the compound at the same concentration was defined 0%. The rate was subjected to curve fitting using spreadsheet software Xfit to determine EC50 value, i.e., a compound concentration upon 50% activity rate.
For the compound `N[C@@H](CSC(=O)Nc1cccc(S(=O)(=O)O)c1)C(=O)O` [Example 4, (2R)-2-amino-3-{[(3-sulfophenyl)carbamoyl]sulfanyl}propanoic acid], the EC50 was 40 nM. Consider `N#CCC[C@H](N)COC(=O)Nc1cc(Cl)cc(S(=O)(=O)O)c1O` [Example 12, 3-({[(2S)-2-amino-4-cyanobutoxy]carbonyl}amino)-5-chloro-2-hydroxybenzene-1-sulfonic acid], for which the EC50 came to 1100 nM. The compound `Cc1nnc([C@@H](N)CCC(=O)Nc2cc(Cl)cc(S(=O)(=O)O)c2O)o1` [Example 15, 3-[(4S)-4-amino-4-(5-methyl-1,3,4-oxadiazol-2-yl)butanamide]-5-chloro-2-hydroxybenzene-1-sulfonic acid] yielded an EC50 of 180 nM. `N[C@@H](CCC(=O)Nc1cc(Cl)cc(S(=O)(=O)O)c1O)c1nnc(Cc2ccccc2)o1` [Example 16, 3-[(4S)-4-amino-4-(5-benzyl-1,3,4-oxadiazol-2-yl)butanamide]-5-chloro-2-hydroxybenzene-1-sulfonic acid] gave an EC50 of 880 nM.

Turning to `N[C@@H](CCC(=O)Nc1cc(Cl)cc(S(=O)(=O)O)c1O)C(=O)NNC(=O)Cc1ccccc1` [Example 17, 3-[(4S)-4-amino-5-oxo-5-(2-phenylacetohydrazide)pentanamide]-5-chloro-2-hydroxybenzene-1-sulfonic acid], the response was half-maximal at 250 nM (EC50). `N[C@@H](CCC(=O)Nc1cc(Cl)cc(S(=O)(=O)O)c1O)C(=O)NCCc1cccc(Cl)c1` [Example 32, 3-[(4S)-4-amino-4-{[2-(3-chlorophenyl)ethyl]carbamoyl}butanamide]-5-chloro-2-hydroxybenzene-1-sulfonic acid]: it took 1200 nM to reach a half-maximal effect (EC50). In turn, `CS(=O)(=O)NC(=O)[C@@H](N)CCC(=O)Nc1cc(Cl)cc(S(=O)(=O)O)c1O` [Example 34, 3-[(4S)-4-amino-4-(methanesulfonylcarbamoyl)butanamide]-5-chloro-2-hydroxybenzene-1-sulfonic acid] registered a half-maximal effective concentration (EC50) of 390 nM. `N[C@@H](CCC(=O)Nc1cc(Cl)cc(S(=O)(=O)O)c1O)C(=O)NO` [Example 41, 3-[(4S)-4-amino-4-(hydroxycarbamoyl)butanamide]-5-chloro-2-hydroxybenzene-1-sulfonic acid] showed a concentration giving a half-maximal response (EC50) of 39 nM.

Take `N[C@@H](CCC(=O)Nc1cccc(S(=O)(=O)O)n1)C(=O)O` [Example 42, (2S)-2-amino-4-[(6-sulfopyridine-2-yl)carbamoyl]butanoic acid trifluoroacetic acid salt]: it took 13000 nM to reach a half-maximal effect (EC50). As to `C[C@H](OC(=O)Nc1cccc(S(=O)(=O)O)c1)[C@H](N)C(=O)O` [Example 43, (2S,3S)-2-amino-3-{[(3-sulfophenyl)carbamoyl]oxy}butanoic acid], it took 7000 nM to reach a half-maximal effect (EC50). On to `Cc1c(Cl)cc(S(=O)(=O)O)cc1NC(=S)NC[C@H](N)C(=O)O` [Example 47, (2S)-2-amino-3-{[(3-chloro-2-methyl-5-sulfophenyl)carbamothioyl]amino}propanoic acid], for which the EC50 was 4 nM. This EC50 is about 1800-fold lower than that of the compound before. In the case of `N[C@@H](CCC(=O)Nc1cc(Cl)cc(S(=O)(=O)O)c1O)C(=O)NS(=O)(=O)c1ccccc1` [Example 62, 3-[(4S)-4-amino-4-[(benzenesulfonyl)carbamoyl]butanamide]-5-chloro-2-hydroxybenzene-1-sulfonic acid] it was 2300 nM; in that of `COC(=O)[C@@H](N)CNC(=O)Nc1cc(Cl)cc(S(=O)(=O)O)c1O` [Example 67, 3-({[(2S)-2-amino-3-methoxy-3-oxopropyl]carbamoyl}amino)-5-chloro-2-hydroxybenzene-1-sulfonic acid], 3 nM; in that of `CN(C)[C@@H](CCC(=O)Nc1cc(Cl)cc(S(=O)(=O)O)c1O)C(=O)O` [Example 76, (2S)-4-[(5-chloro-2-hydroxy-3-sulfophenyl)carbamoyl]-2-(dimethylamino)butanoic acid], 1800 nM. In the case of `N[C@@H](CNC(=O)Nc1cccc(S(=O)(=O)O)c1)C(=O)O` [Example 77, (2S)-2-amino-3-{[(3-sulfophenyl)carbamoyl]amino}propanoic acid] it was 18 nM; in that of `CN[C@@H](CNC(=O)Nc1cc(Cl)c(C)c(S(=O)(=O)O)c1)C(=O)O` [Example 79, (2S)-3-{[(3-chloro-4-methyl-5-sulfophenyl)carbamoyl]amino}-2-(methylamino)propanoic acid], 313 nM; in that of `COc1ccc(NC(=O)NC[C@H](N)C(=O)O)cc1S(=O)(=O)O` [Example 81, (2S)-2-amino-3-{[(4-methoxy-3-sulfophenyl)carbamoyl]amino}propanoic acid], 3700 nM.

The compound `COc1ccc(S(=O)(=O)O)cc1NC(=O)NC[C@H](N)C(=O)O` [Example 82, (2S)-2-amino-3-{[(2-methoxy-5-sulfophenyl)carbamoyl]amino}propanoic acid] registered an EC50 of 1000 nM. In the case of `CC(=O)Nc1cc(S(=O)(=O)O)cc(NC(=O)NC[C@H](N)C(=O)O)c1O` [Example 83, (2S)-2-amino-3-{[(3-acetamide-2-hydroxy-5-sulfophenyl)carbamoyl]amino}propanoic acid] it was 21100 nM; in that of `N[C@@H](CNC(=O)Nc1cccc(C(=O)O)c1)C(=O)O` [Example 85, 3-({[(2S)-2-amino-2-carboxyethyl]carbamoyl}amino)benzoic acid], 1600 nM; in that of `N[C@@H](CNC(=O)Nc1cc(C(=O)O)ccc1Cl)C(=O)O` [Example 88, 3-({[(2S)-2-amino-2-carboxyethyl]carbamoyl}amino)-4-chlorobenzoic acid], 2300 nM. As for `Cc1cc(C)c(S(=O)(=O)O)cc1NC(=O)NC[C@H](N)C(=O)O` [Example 89, (2S)-2-amino-3-{[(2,4-dimethyl-5-sulfophenyl)carbamoyl]amino}propano is acid], the concentration for a half-maximal effect (EC50) stood at 1100 nM. As to `N[C@@H](CNC(=O)Nc1cccc(C(=O)O)c1O)C(=O)O` [Example 90, 3-({[(2S)-2-amino-2-carboxyethyl]carbamoyl}amino)-2-hydroxybenzoic acid], the EC50 was determined as 1000 nM. Under `N[C@@H](CNC(=O)Nc1cc(C(=O)O)cc([N+](=O)[O-])c1)C(=O)O` [Example 92, 3-({[(2S)-2-amino-2-carboxyethyl]carbamoyl}amino)-5-nitrobenzoic acid] stands 1800 nM. In turn, `Cc1ccc(C(=O)O)cc1NC(=O)NC[C@H](N)C(=O)O` [Example 93, 3-({[(2S)-2-amino-2-carboxyethyl]carbamoyl}amino)-4-methylbenzoic acid] returned a 50% effective concentration (EC50) of 5000 nM. Compared with the last compound, the EC50 is about 2.8-fold higher. In the case of `Cc1ccc(NC(=O)NC[C@H](N)C(=O)O)cc1C(=O)O` [Example 99, 5-({[(2S)-2-amino-2-carboxyethyl]carbamoyl}amino)-2-methylbenzoic acid] it was 15000 nM. On to `COc1c(NC(=O)NC[C@H](N)C(=O)O)cccc1C(=O)O` [Example 100, 3-({[(2S)-2-amino-2-carboxyethyl]carbamoyl}amino)-2-methoxybenzoic acid], for which the EC50 is 5800 nM.
